Reference: patent US20070092551A1, “Therapeutic agent” (TAKARA BIO INC., priority 2003, published 2007)
Read-outs that look alike come from different tables or passages of the source.

Tested on: 3T3-L1 cells
Test: Induction of adipocyte differentiation (amount of triglyceride biosynthesis)
Assay type: cell-based
Settings: Mus musculus
Experimental: Induction of adipocyte differentiation was carried out by partially modifying the above-mentioned method of Rubin C. S. et al. In addition, as a test compound, a compound prepared in Examples mentioned above or a commercially available compound was used. 3T3-L1 cells (ATCC CCL-92.1) were suspended in a 10% fetal bovine serum (manufactured by Bio Whittaker)-containing Dulbecco's modified Eagle's medium (manufactured by Sigma, D6046) containing 200 μM ascorbic acid so as to have a density of 4×10^3 cells/mL, and the suspension was put in each well of a 12-well microtiter plate in an amount of 2 ml per well. The cells were cultured at 37° C. for 7 days in the presence of 5% carbon dioxide gas. On the seventh day, the medium was exchanged with a 10% fetal bovine serum (manufactured by Bio Whittaker)-containing Dulbecco's modified Eagle's medium containing 200 μM ascorbic acid and 0.25 μM dexamethasone, and a test compound dissolved in dimethyl sulfoxide in a concentration shown in each of Tables 16 to 19 was added to each well. Here, there were set a group with addition of 4 μL of an aqueous solution containing 5 mg/mL insulin (manufactured by TAKARA BIO INC.) as a positive control, and a group with addition of dimethyl sulfoxide as a negative control. After 45 hours, the medium was exchanged with a 10% fetal bovine serum-containing Dulbecco's modified Eagle's medium containing 200 μM ascorbic acid. A test compound, 2 μL of an aqueous solution containing 5 mg/mL insulin as a positive control, or dimethyl sulfoxide as a negative control was put to each well in the same concentration. The cells were cultured for additional 7 days. In addition, the medium was exchanged on after 2 days and after 5 days, and at that time, a test compound, 2 μL of an aqueous solution containing 5 mg/mL insulin as a positive control, or dimethyl sulfoxide as a negative control was put to each well in the same concentration.
The amount of triglyceride in the adipocytes was determined as an index of induction of differentiation into mature adipocytes, and also, as the evaluation of insulin-mimetic action.
After the termination of the culture, the medium was removed, and the cells were washed twice with a phosphate buffered saline. One milliliter of a solvent of hexane:isopropanol=3:2 was added to the cells. The mixture was allowed to stand at room temperature for 30 minutes, and thereafter the supernatant was collected. The procedures were repeated again, and 2 mL of the supernatant was concentrated to dryness. The precipitate was dissolved in 100 μL of isopropanol, and the amount of triglyceride contained in 10 μL of the solution was determined using a triglyceride E-test (manufactured by Wako Pure Chemical Industries, Ltd., code 432-40201). In addition, all the determinations were carried out twice. The action for induction of differentiation was calculated by the following calculation formula, and shown by four ranks of +++, ++, + and +/−. • S: Amount of triglyceride in the presence of a test compound; • N: Amount of triglyceride in the negative control; and • P: Amount of triglyceride in the positive control; X=(S−N)/(P−N) (Judgment of Action for Induction of Differentiation)

[1] = 3T3-L1, 3 μM, X=(S−N)/(P−N) of amount of triglyceride, P=insulin positive control, read-out: Action for Induction of Differentiation
[2] = 3T3-L1, 10 μM, X=(S−N)/(P−N) of amount of triglyceride, P=insulin positive control, read-out: Action for Induction of Differentiation
[3] = 3T3-L1, 30 μM, X=(S−N)/(P−N) of amount of triglyceride, P=insulin positive control, read-out: Action for Induction of Differentiation
[4] = 3T3-L1, X=(S−N)/(P−N) of amount of triglyceride, P=insulin positive control, read-out: Action for Induction of Differentiation
[5] = 3T3-L1, read-out: Action for Induction of Differentiation

Row | Structure (SMILES) | activation at 3 µM [1] | activation at 10 µM [2] | activation at 30 µM [3] | other results
1 | COc1ccc(C=O)c(O)c1CC=C(C)C [Compound (C063), 2-hydroxy-3-prenyl-4-methoxybenzaldehyde] | 30 to 60% | 60 to 100% | > 100% | –
2 | CC(=O)c1ccc(O)c(C/C=C(\C)CC/C=C(\C)CCC=C(C)C)c1O [Compound (C051), 2′,4′-dihydroxy-3′-farnesylacetophenone] | – | – | 60 to 100% | –
3 | COc1ccc(C(=O)/C=C/c2ccc(O)cc2)c(O)c1C [Compound (C023), 4,2′-dihydroxy-3′-methyl-4′-methoxychalcone] | – | – | – | activation at 4 µM (3T3-L1, 4 μM, X=(S−N)/(P−N) of amount of triglyceride, P=insulin positive control, read-out: Action for Induction of Differentiation): 60 to 100%; activation at 13 µM [4]: 60 to 100%
4 | CC(=O)c1ccc(OCc2ccccc2)c(C/C=C(\C)CCC=C(C)C)c1O [Compound (C070), 2′-hydroxy-3′-geranyl-4′-benzyloxyacetophenone] | – | 30 to 60% | 60 to 100% | –
5 | CC12CCC(O)C(C)(C)C1Cc1c(O)ccc(C(=O)/C=C/c3ccc(O)cc3)c1O2 (centres unmarked) [TB1, 1-(5,6,7,8,8a,10a-hexahydro-1,7-dihydroxy-8,8,10a-trimethyl-9H-xanthen-4-yl)-3-(4-hydroxyphenyl)-2-propen-1-one] | > 100% | 60 to 100% | – | –
6 | COc1ccc2c(c1C/C=C(\C)CCC=C(C)C)OC(c1ccc(O)cc1)CC2=O (centres unmarked) [Compound (C082), 8-geranyl-4′-hydroxy-7-methoxyflavanone] | – | 60 to 100% | – | –
7 | COc1ccc(C(=O)/C=C/c2cccs2)c(O)c1CC=C(C)C [Compound (C-THP), 1-(2-hydroxy-4-methoxy-3-prenylphenyl)-3-(2-thienyl)-2-propen-1-one] | 60 to 100% | > 100% | – | activation at 1 µM (3T3-L1, 1 μM, X=(S−N)/(P−N) of amount of triglyceride, P=insulin positive control, read-out: Action for Induction of Differentiation): 15 to 30%
8 | CC(C)=CCC/C(C)=C/COc1ccc([C@@H]2CC(=O)c3c(O)cc(O)cc3O2)cc1 [4′-O-Geranylnaringenin] | 30 to 60% | 60 to 100% | > 100% | –
9 | CC(C)=CCCC1(C)Oc2c(C(=O)/C=C/c3ccc(O)cc3)ccc(O)c2CC1O (centres unmarked) [TB2, 1-(3,4-dihydro-3,5-dihydroxy-2-(3-isohexenyl)-2-methyl-2H-benzopyran-8-yl)-3-(4-hydroxyphenyl)-2-propen-1-one] | > 100% | > 100% | – | –
10 | CC(C)=CCC/C(C)=C/Cc1c(O)ccc2c1OC(c1ccc(O)cc1)CC2=O (centres unmarked) [Prostratol F] | 60 to 100% | 60 to 100% | – | –
11 | CC(=O)c1ccc(O)c(C/C=C(\C)CCC=C(C)C)c1O [Compound (C036), 2′,4′-dihydroxy-3′-geranylacetophenone] | 15 to 30% | 60 to 100% | – | –
12 | COc1ccc(C(=O)/C=C/C=C(C)C)c(O)c1CC=C(C)C [Compound (C069), 1-(2-hydroxy-3-prenyl-4-methoxyphenyl)-5-methyl-2,4-hexadien-1-one] | 30 to 60% | > 100% | > 100% | –
13 | C=C(C)C(O)CC/C(C)=C/Cc1c(OC)ccc(C(=O)/C=C/c2ccc(O)cc2)c1O (centres unmarked) [Xanthoangelol G] | 30 to 60% | > 100% | > 100% | –
14 | COc1ccc2c(c1CC=C(C)C)OC(c1ccc(O)cc1)CC2=O (centres unmarked) [Compound (C034), 7-methoxy-8-prenyl-4′-hydroxyflavanone] | > 100% | > 100% | – | –
15 | COc1ccc(C(=O)/C=C/c2ccc(O)cc2)c(O)c1C/C=C(\C)C/C=C/C(C)(C)O [Compound (C081), 1-[2-hydroxy-3-(7-hydroxy-3,7-dimethyl-2,5-octadienyl)-4-methoxyphenyl]-3-(4-hydroxyphenyl)-2-propen-1-one] | 60 to 100% | > 100% | > 100% | –
16 | COc1ccc(C(C)=O)c(O)c1C [Compound (C022), 2′-hydroxy-3′-methyl-4′-methoxyacetophenone] | – | – | – | activation at 13 µM [4]: 15 to 30%
17 | C/C(=C\Cc1c(O)ccc(C(=O)/C=C/c2ccc(O)cc2)c1O)CCC(O)C(C)(C)O (centres unmarked) [TB5, 1-[2,4-dihydroxy-3-(6,7-dihydroxy-3,7-dimethyl-2-octenyl)phenyl]-3-(4-hydroxyphenyl)-2-propen-1-one] | > 100% | > 100% | – | –
18 | COc1ccc(C(=O)/C=C/c2ccc(O)cc2)c2c1CC(C(C)(C)O)O2 (centres unmarked) [TB4, 1-[2,3-dihydro-2-(1-hydroxy-1-methylethyl)-4-methoxy-benzofuran-7-yl]-3-(4-hydroxyphenyl)-2-propen-1-one] | 30 to 60% | 30 to 60% | – | –
19 | CC(=O)c1ccccc1OCc1ccccc1 [Compound (C065), 2′-benzyloxyacetophenone] | – | – | – | activation at 3 µM [5]: 30 to 60%; activation at 10 µM [5]: 60 to 100%; activation at 30 µM [5]: > 100%
20 | CC(=O)c1ccc(O)c(Cc2ccccc2)c1O [Compound (C054), 2′,4′-dihydroxy-3′-benzylacetophenone] | 15 to 30% | 30 to 60% | – | –
